From US20040132755A1, “Isoxazoles and uses thereof” (priority 2002, published 2004) come the findings set out here.

The subject of the test is LPS-induced tumor necrosis factor-α (TNF-α) production in mixed glial cells. As to the kind of experiment: In vitro CNS inflammation assay. In kind it is cell-based. As to conditions: Rattus norvegicus, Glial cell, 6 h, LPS 50 ng/ml, TNF-α ELISA. As for the experimental part:
This protocol describes the procedure used to induce experimental inflammation by lipopolysacchride (LPS) in cultured CNS mixed glial cells. The anti-inflammatory effect of test compounds was evaluated against LPS-induced tumor necrosis factor-α (TNF-α) production in mixed glial cells.
The following steps were performed the day of the assay:
The mixed glial cells (7 days from initial culture) were replenished with mixed glial culture media consist of 50:50:10:1 combination of DMEM (high glucose: Invitrogen Corp), F-12 (Invitrogen Corp), 100% fetal bovine serum and 100×N-2 supplement (Invitrogen Corp). These mixed glial cells were prepared according to Park L C, Calingasan N Y, Uchida K, Zhang H, Gibson G E. (2000) “Metabolic impairment elicits brain cell type-selective changes in oxidative stress and cell death in culture.” J Neurochem 74(1):114-124 with some modification. Briefly, rat […] forebrains (1-2 day old) were isolated, triturated and plated on 96-well plates (20,000 cells per well) in mixed glial media in 5% CO2 incubator at 37° C. […]
The quantitative determination of TNF-αpresent in cell culture medium produced by mixed glial cells was performed using a solid phase sandwich enzyme linked immno-sorbent assay (ELISA) method based on the protocol and reagents provided by Biosource rat TNF-α ELISA kit (Biosource International).
In general terms: An ELISA detects its analyte on a solid surface through an enzyme-linked reagent.

Where only a bound is given, the exact number is not on record here.

Broadly, the IC50 is the midpoint of a concentration-inhibition curve. Turning to `OC1CCN(Cc2onc(-c3ccc(F)cc3)c2-c2ccnc(NC3CCCCC3)n2)CC1` [I-1], the concentration for half-maximal inhibition (IC50) was no more than 1 µM.
